Test results taken from ChEMBL document CHEMBL3804797, “Discovery of Aryl Sulfonamides as Isoform-Selective Inhibitors of NaV1.7 with Efficacy in Rodent Pain Models” (ACS Med Chem Lett, 2016).

How the values were obtained:
[1] = target: hERG (KCNH2) (Homo sapiens, UniProt Q12809); assay: Displacement of [3H] astemizole from human ERG channel at 5 uM; conditions: probe [3H] astemizole
[2] = target: Sodium channel protein type 5 subunit alpha (Homo sapiens, UniProt Q14524); assay: Inhibition of full length human Nav1.5 channel expressed in HEK cells co-expressing human sodium channel subunit beta1 at holding potential -60 mV by automated voltage clamp analysis; assay type: cell-based, HEK293
[3] = target: Sodium channel protein type 9 subunit alpha (Homo sapiens, UniProt Q15858); assay: Inhibition of full length human Nav1.7 channel expressed in HEK cells co-expressing human sodium channel subunit beta1 at holding potential -60 mV by automated voltage clamp analysis; assay type: cell-based, HEK293
[4] = species on record: Homo sapiens; assay: Selectivity ratio of IC50 for human Nav1.5 to IC50 for human Nav1.7
[5] = target: Sodium channel protein type 1 subunit alpha (Homo sapiens, UniProt P35498); assay: Inhibition of full length human Nav1.1 channel expressed in HEK cells co-expressing human sodium channel subunit beta1 at holding potential -40 mV by automated voltage clamp analysis; assay type: cell-based, HEK293
[6] = target: Sodium channel protein type 2 subunit alpha (Homo sapiens, UniProt Q99250); assay: Inhibition of full length human Nav1.2 channel expressed in HEK cells co-expressing human sodium channel subunit beta1 at holding potential -35 mV by automated voltage clamp analysis; assay type: cell-based, HEK293
[7] = target: Sodium channel protein type 4 subunit alpha (Homo sapiens, UniProt P35499); assay: Inhibition of full length human Nav1.4 channel expressed in HEK cells co-expressing human sodium channel subunit beta1 by automated voltage clamp analysis; assay type: cell-based, HEK293
[8] = target: Sodium channel protein type 8 subunit alpha (Homo sapiens, UniProt Q9UQD0); assay: Inhibition of full length human Nav1.6 channel expressed in HEK cells co-expressing human sodium channel subunit beta1 at holding potential -35 mV by automated voltage clamp analysis; assay type: cell-based, HEK293
[9] = target: Sodium channel protein type 10 subunit alpha (Homo sapiens, UniProt Q9Y5Y9); assay: Inhibition of full length human Nav1.8 channel expressed in HEK cells co-expressing human sodium channel subunit beta3 at holding potential -20 mV by manual voltage clamp analysis; assay type: cell-based, HEK293
[10] = target: Sodium channel protein type 3 subunit alpha (Homo sapiens, UniProt Q9NY46); assay: Inhibition of full length human Nav1.3 channel expressed in HEK cells co-expressing human sodium channel subunit beta1 at holding potential -50 mV by automated voltage clamp analysis; assay type: cell-based, HEK293

Chain of hERG (KCNH2) (Q12809 whole entry): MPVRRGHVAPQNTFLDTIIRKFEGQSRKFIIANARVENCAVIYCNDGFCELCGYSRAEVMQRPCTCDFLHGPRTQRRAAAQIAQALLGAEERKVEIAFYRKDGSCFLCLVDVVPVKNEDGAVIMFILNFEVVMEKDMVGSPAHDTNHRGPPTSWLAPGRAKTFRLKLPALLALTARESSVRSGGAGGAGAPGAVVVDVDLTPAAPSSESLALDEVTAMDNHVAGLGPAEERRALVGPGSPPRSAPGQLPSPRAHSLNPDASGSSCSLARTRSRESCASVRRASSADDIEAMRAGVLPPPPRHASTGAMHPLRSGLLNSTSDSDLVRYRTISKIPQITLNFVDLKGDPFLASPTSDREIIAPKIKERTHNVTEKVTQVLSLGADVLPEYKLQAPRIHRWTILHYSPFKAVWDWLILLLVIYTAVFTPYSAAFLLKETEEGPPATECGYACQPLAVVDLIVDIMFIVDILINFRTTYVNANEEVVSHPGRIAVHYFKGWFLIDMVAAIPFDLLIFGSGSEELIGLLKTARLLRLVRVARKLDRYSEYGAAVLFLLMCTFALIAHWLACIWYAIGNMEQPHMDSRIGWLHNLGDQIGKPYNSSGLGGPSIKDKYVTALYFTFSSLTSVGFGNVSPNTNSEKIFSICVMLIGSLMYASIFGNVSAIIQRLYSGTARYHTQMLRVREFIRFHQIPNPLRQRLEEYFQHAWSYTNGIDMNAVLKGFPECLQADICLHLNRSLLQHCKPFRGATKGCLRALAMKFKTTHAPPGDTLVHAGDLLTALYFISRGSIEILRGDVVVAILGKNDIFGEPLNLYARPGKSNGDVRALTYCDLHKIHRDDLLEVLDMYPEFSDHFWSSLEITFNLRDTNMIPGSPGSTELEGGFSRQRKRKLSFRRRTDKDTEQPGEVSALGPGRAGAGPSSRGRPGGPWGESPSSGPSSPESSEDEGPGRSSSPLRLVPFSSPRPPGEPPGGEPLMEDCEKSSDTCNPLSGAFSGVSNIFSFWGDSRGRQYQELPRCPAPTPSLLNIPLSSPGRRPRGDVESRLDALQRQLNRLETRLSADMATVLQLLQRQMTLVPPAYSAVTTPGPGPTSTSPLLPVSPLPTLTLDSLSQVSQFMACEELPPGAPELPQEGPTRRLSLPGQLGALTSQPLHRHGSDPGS
Chain of Sodium channel protein type 5 subunit alpha (Q14524 whole entry): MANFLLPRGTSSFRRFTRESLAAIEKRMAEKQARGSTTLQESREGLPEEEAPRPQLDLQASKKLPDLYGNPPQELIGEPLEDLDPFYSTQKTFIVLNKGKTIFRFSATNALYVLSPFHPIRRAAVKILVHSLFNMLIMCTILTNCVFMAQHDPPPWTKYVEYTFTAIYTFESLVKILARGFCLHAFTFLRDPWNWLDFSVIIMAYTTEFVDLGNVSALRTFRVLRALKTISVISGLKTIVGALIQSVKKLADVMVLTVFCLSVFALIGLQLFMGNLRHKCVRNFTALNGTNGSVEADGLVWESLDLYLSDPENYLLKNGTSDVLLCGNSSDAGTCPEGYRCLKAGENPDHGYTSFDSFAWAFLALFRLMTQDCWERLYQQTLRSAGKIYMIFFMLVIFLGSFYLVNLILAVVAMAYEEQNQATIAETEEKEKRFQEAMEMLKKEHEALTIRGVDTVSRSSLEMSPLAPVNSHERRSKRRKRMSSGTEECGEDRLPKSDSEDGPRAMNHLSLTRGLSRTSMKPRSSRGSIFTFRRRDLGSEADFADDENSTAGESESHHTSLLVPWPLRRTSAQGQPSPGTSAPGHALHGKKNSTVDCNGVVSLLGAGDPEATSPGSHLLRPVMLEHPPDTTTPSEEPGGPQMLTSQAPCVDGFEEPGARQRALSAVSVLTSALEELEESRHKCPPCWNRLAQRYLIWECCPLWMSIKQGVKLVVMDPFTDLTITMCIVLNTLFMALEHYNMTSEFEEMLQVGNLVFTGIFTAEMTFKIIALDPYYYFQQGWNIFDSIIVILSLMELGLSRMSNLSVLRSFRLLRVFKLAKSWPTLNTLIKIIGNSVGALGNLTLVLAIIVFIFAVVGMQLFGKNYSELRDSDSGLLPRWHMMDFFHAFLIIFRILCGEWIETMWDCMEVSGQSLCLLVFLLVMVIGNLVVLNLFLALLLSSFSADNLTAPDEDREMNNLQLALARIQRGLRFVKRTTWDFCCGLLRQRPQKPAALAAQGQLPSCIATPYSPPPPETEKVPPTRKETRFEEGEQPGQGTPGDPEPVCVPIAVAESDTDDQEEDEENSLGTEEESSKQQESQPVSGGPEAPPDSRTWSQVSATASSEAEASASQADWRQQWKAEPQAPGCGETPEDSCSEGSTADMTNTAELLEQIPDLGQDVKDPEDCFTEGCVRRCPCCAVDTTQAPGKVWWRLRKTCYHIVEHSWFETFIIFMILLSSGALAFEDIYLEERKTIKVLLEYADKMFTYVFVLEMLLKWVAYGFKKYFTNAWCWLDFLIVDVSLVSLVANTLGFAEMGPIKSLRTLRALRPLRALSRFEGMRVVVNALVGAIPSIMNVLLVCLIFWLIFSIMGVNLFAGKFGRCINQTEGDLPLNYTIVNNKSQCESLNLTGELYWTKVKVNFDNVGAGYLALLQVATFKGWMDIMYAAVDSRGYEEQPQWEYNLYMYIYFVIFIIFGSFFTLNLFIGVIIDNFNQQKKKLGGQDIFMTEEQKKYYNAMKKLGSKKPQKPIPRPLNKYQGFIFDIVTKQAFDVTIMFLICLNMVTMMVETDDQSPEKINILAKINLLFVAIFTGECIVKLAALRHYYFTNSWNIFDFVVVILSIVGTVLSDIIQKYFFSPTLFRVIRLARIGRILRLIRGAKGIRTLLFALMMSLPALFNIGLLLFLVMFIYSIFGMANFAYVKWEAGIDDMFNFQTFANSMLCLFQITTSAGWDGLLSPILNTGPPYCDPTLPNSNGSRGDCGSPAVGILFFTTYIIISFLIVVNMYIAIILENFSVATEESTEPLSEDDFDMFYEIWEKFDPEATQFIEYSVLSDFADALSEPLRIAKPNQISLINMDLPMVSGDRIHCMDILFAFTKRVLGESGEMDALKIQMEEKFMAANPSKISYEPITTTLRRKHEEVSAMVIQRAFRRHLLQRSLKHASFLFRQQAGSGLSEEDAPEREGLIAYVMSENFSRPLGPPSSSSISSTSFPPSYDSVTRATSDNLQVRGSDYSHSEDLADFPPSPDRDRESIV
Chain of Sodium channel protein type 4 subunit alpha (P35499 whole entry): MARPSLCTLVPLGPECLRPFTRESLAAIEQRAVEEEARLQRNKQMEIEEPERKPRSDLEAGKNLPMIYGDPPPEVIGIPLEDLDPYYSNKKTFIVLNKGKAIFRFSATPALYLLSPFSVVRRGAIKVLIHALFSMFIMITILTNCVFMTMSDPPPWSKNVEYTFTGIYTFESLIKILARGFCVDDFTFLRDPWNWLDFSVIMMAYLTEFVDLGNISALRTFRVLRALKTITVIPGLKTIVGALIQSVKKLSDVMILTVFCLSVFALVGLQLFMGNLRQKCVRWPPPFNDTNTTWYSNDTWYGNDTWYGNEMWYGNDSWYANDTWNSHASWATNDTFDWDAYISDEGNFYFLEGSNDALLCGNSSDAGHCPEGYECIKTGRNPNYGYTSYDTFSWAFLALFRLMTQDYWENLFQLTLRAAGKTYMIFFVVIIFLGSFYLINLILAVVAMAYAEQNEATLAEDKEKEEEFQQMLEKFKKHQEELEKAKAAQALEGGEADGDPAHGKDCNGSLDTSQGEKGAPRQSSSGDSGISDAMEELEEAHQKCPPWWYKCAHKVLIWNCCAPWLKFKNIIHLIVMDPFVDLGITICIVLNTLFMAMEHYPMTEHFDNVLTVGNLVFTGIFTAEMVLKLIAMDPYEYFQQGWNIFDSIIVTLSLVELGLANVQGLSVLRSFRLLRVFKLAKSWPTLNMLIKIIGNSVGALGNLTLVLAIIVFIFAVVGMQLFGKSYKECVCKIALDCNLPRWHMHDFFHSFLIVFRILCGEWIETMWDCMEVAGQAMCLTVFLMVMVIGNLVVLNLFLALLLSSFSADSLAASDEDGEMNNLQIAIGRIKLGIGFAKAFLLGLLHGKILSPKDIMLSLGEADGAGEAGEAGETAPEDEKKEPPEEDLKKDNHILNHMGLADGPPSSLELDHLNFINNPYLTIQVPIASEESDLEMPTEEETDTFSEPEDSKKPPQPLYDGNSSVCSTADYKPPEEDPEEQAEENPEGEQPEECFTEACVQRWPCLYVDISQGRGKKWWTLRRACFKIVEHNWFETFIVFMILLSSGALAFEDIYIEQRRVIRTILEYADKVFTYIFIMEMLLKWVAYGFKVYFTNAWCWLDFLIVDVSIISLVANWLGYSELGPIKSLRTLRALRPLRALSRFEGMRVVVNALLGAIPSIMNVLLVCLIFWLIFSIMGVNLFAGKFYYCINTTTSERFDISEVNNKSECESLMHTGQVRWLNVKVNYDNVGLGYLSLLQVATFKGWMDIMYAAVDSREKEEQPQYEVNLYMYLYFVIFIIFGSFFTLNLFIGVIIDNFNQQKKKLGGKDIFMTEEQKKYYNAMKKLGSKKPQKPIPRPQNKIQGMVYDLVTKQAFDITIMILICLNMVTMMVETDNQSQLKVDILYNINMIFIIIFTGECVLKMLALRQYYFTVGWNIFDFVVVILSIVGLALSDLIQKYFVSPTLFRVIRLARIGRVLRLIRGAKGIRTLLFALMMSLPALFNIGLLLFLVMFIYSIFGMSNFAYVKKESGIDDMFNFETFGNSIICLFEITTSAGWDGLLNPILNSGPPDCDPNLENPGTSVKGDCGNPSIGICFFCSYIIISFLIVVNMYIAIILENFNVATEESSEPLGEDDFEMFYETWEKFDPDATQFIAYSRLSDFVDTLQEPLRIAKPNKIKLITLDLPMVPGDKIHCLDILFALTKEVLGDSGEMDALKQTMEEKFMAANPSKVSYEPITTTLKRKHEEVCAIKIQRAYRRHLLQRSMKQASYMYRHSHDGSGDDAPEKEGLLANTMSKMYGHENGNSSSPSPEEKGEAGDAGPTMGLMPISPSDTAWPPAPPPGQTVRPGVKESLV

## Nc1noc2ccc(-c3ccccc3Oc3cc(F)c(S(=O)(=O)Nc4ncns4)cc3F)cc12
[1]
  inhibition at 5 µM: < 11%

## Nc1noc2ccc(-c3cccnc3Oc3cc(F)c(S(=O)(=O)Nc4ncns4)cc3F)cc12
[1]
  inhibition at 5 µM: < 11%

## O=c1[nH]c2ccc(-c3cc(Cl)ccc3Oc3cc(F)c(S(=O)(=O)Nc4ncns4)cc3F)cc2[nH]1
[2]
  IC50: > 10 µM
[1]
  inhibition at 5 µM: < 11%

## Nc1noc2ccc(-c3cc(Cl)ccc3Oc3cc(F)c(S(=O)(=O)NCc4ncccn4)cc3F)cc12
[3]
  IC50: 5.2 µM

## Nc1noc2ccc(-c3cc(Cl)ccc3Oc3cc(F)c(S(=O)(=O)Nc4cscn4)cc3F)cc12
[1]
  inhibition at 5 µM: < 11%

## CNc1noc2ccc(-c3cc(Cl)ccc3Oc3cc(F)c(S(=O)(=O)Nc4ncns4)cc3F)cc12
[2]
  IC50: 0.23 µM
[1]
  inhibition at 5 µM: < 11%

## O=S(=O)(Nc1ncns1)c1cc(F)c(Oc2ccc(Cl)cc2-c2ccc3[nH]cnc3c2)cc1F
[2]
  IC50: > 10 µM
[1]
  inhibition at 5 µM: < 11%

## Nc1noc2ccc(-c3cc(F)ccc3Oc3cc(F)c(S(=O)(=O)Nc4ncns4)cc3F)cc12
[1]
  inhibition at 5 µM: < 11%

## Nc1nc2cc(-c3cc(Cl)ccc3Oc3cc(F)c(S(=O)(=O)Nc4ncns4)cc3F)ccc2[nH]1
[2]
  IC50: > 10 µM
[4]
  Ratio IC50: > 12000
[5]
  IC50: 6.38 µM
[6]
  IC50: 0.0002 µM
[7]
  IC50: > 10 µM
[8]
  IC50: 0.0008 µM
[9]
  IC50: 3.85 µM
[1]
  inhibition at 5 µM: < 11%
[10]
  IC50: 9.33 µM
